Holding throughout (format): physicochemical
The nature of data set [1]: Loading of aminofluorescein to DOTAP/DOPC liposomes, cross-flow filtration and UV-vis. The following applies: DOTAP/DOPC 1:1 liposomes, after three cycles of filtration. Here is the method: A 25 mM liposome formulation consisting of DOTAP/DOPC 1:1 in a solution of 5% glucose (w/v) was prepared. Briefly, a solution of DOTAP/DOPC in chloroform was put into a round bottom flask, and the solvent was evaporated in order to obtain a thin lipid film. The lipid film was reconstituted with the glucose solution to a total lipid concentration of 25 mM. The resulting multilamellar, polydisperse liposome suspension was extruded through a membrane of 200 nm pore size to obtain liposomes of uniform size.
10 ml of the liposome preparation and 10 ml of a 5 mM aqueous solution of aminofluorescein were combined.
Subsequently, the molecularly dissolved components were removed by cross-flow filtration, using a VIVAFLOW filtration kit, […] and a Masterflex easy lod pump, model.
20 ml of the preparation were diluted with 20 ml glucose. By the subsequent dialysis, part of the solvent and the molecularly dissolved (low molecular) compound penetrated across the separation membrane, while the liposomes were retained. Filtration was performed until the volume of the original solution was reduced to half of the start volume. Then the lost volume was substituted by glucose solution and the filtration was started again. Three filtration cycles were performed.
The concentration of aminofluorescein in the permeate and in the retained liposome suspension was determined by UV-vis spectroscopy.

The nature of data set [2]: Fraction of free (non-liposomally bound) CPT by Vivaspin 2 centrifugal filtration (MWCO 100 kDa) and UV-spectroscopy of the filtrate. Here is the method: For direct comparison, CPT-carboxylate loaded liposomes were made by one of the techniques as given in the literature. Liposomes, loaded with CPT-carboxylate produced by the inventive method were prepared with the same total composition. The fraction of free (non-liposomally bound) CPT was determined in both cases. The free CPT was determined by centrifugation with the centrifugal concentrator Vivaspin 2 (Vivasciences). By a membrane of MWCO 100 kDa, the molecularly dissolved solutes were separated from the colloidal particles. The concentration of CPT in the filtrate was determined by UV-spectroscopy. All measurements with camptothecin were made with tris/HCI buffer, pH 7.5, 10 mM or 20 mM.
For the production of classically made formulations, the liposomes were formed directly in the aqueous solution of CPT carboxylate. By subsequent extrusion through membranes of 200 nm pore size homogeneous mixing and encapsulation was provided. The liposomes were made either by the ‘film method’ or by ‘ethanol injection’.
For the film method, a solution of lipids in chloroform is evaporated in a round bottom flask. A thin dry lipid film is formed at the inner wall of the flask. For the production of empty liposomes, the film is reconstituted with water or buffer solution. For the production of CPT loaded liposomes, the film is reconstituted with the CPT-carboxylate solution. […]
A lyophilisate of DOTAP liposomes (30 mM) was reconstituted with 2.088 ml of an aqueous solution of CPT carboxylate in water (1.4 mM). […] From the resulting preparation the fraction of free CPT was determined by centrifugation at different lipid concentrations.
1 ml of the DOTAP concentrate and 9 ml of CPT carboxylate solution, c=[…] were mixed. […] This preparation was diluted 1:10 1:25 and 1:50 and the fraction of free CPT was determined.
Liquid DOTAP formulations were exposed to CPT-carboxylate solutions for different time scales. […] After the given time, the fraction of free CPT was determined for different dilutions. […]

Data set [3] in a line: Solubility of camptothecin in buffered aqueous phase at different pH values. The following applies: 50 mM buffer, pH values below 7, within few days. Here is the method: In this measurements, the solubility of camptothecin in aqueous media at different pH values is investigated. Pure camptothecin carboxylate was dissolved in a buffered (50 mM) aqueous phase at different pH values. At different times the solutions were centrifuged in order to remove camptothecin lactone crystals and the remaining concentration of the camptothecin in the supernatant was determined by UV-vis spectroscopy. […] These concentrations are too low for sufficient pharmaceutical efficacy.

Data set [4] in a line: Stability of camptothecin carboxylate in concentrated alkaline media (HPLC). Here is the method: CPT-carboxylate can be obtained quantitatively from the lactone form of CPT by incubation the latter with at least an equimolar amount or an excess of base (e.g. NaOH or NH4OH). In the most simple approach CPT lactone is stirred with 1 M NaOH or NH4OH ovenight. Higher concentrations are favourable to accelerate the process.
Camptothecin in the lactone form was dissolved at a concentration of 4.6 μg/ml in concentrated ammonia (NH4OH) in order to obtain the carboxylate form. HPLC analysis was performed directly after dissolving the lactone and after 19 days.

In the case of aminofluorescein, the “amount retained with the liposome suspension” value in data set [1] (5% glucose) is recorded as 47 % of the original concentration. Moreover, in data set [1], the “retained amount relative to expected value without any retention” value is given as “four times as high”.
On to `CC[C@@]1(O)C(=O)OCc2c1cc1n(c2=O)Cc2cc3ccccc3nc2-1` [Camptothecin, 20(S)-Camptothecine (1H-Pyrano[3′,4′:6,7]indolizino[1,2-b]quinoline-3,14 (4H,12H)-dione, 4-ethyl-4-hydroxy-, (S)—)], for which the “loading of DOTAP liposomes with CPT at first time point after mixing” value in data set [2] (DOTAP 15 mM, CPT carboxylate 0.75 mM, original concentration, Tris/HCl 10 mM pH 7.5) is on record as “loading reached saturation”. Also, the “time up to which fraction of loaded drug increased” value in data set [2] (diluted samples of DOTAP 15 mM/CPT 0.75 mM mixture, not stirred) is reported as “up to 4 hours”. In addition, in data set [3], the “concentration of camptothecin remaining in supernatant” value is on record as “very low values”. Further, in data set [4] (4.6 μg/ml in concentrated ammonia (NH4OH), after 19 days), the “degradation by the alkaline medium (HPLC)” value was “no indication for a degradation”.
For `CCC(O)(C(=O)O)c1cc2n(c(=O)c1CO)Cc1cc3ccccc3nc1-2` (centres unmarked) [camptothecin carboxylate], in data set [2] (30-100% DOTAP, total lipid 15 mM, CPT 0.75 mM, additional presence of DOPC), the “loading efficacy in DOTAP/DOPC liposomes” value is given as “only slightly reduced”. Further, the chemical degradation result in data set [4] is “no indication for chemical degradation”.

The values are drawn from patent US20070148250A1, “Loading of a camptothecin drug into colloidal nanoparticles” (priority 2003, published 2007).
